Measurements reported in patent publication US12077503B2, “Substituted cyclic amides and their use as herbicides” (FMC CORPORATION, priority 2015, dated 2024).
Read-outs that look alike come from different tables or passages of the source.

What was measured:
Type in all cases: in vivo
Kochia (Kochia scoparia) [1] = assay: Test A preemergence; settings: Bassia scoparia, pre-emergence, 240 h; for pest or weed control at 500 g/ha: 500 g ai/ha, preemergence; for pest or weed control at 125 g/ha: Preemergence, 125 g ai/ha
In short: (§1)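 In a loam soil and sand blend, planted seeds got a preemergence directed soil spray, and young plants at the one- to two-leaf stage, 2–10 cm high, got a postemergence application; ~10 d greenhouse hold; injury rated visually, 0 = none, 100 = complete control.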

[2] = system: barnyardgrass (Echinochloa crus-galli); assay: Test A preemergence; settings: Echinochloa crus-galli, pre-emergence, 240 h; for pest or weed control at 500 g/ha: 500 g ai/ha, preemergence; for pest or weed control at 125 g/ha: Preemergence, 125 g ai/ha
In short: as §1

[3] = system: giant foxtail (Setaria faberii); assay: Test A preemergence; settings: Setaria faberi, pre-emergence, 240 h; for pest or weed control at 500 g/ha: 500 g ai/ha, preemergence; for pest or weed control at 125 g/ha: Preemergence, 125 g ai/ha
In short: as §1

[4] = system: pigweed (Amaranthus retroflexus); assay: Test A preemergence; settings: Amaranthus retroflexus, pre-emergence, 240 h; for pest or weed control at 500 g/ha: 500 g ai/ha, preemergence; for pest or weed control at 125 g/ha: Preemergence, 125 g ai/ha
[5] = system: ragweed (common ragweed, Ambrosia elatior); assay: Test A preemergence; settings: Ambrosia artemisiifolia, pre-emergence, 240 h; for pest or weed control at 500 g/ha: 500 g ai/ha, preemergence; for pest or weed control at 125 g/ha: Preemergence, 125 g ai/ha
In short: as §1

[6] = system: ryegrass, Italian (Italian ryegrass, Lolium multiflorum); assay: Test A preemergence; settings: Lolium multiflorum, pre-emergence, 240 h; for pest or weed control at 500 g/ha: 500 g ai/ha, preemergence; for pest or weed control at 125 g/ha: Preemergence, 125 g ai/ha
In short: as §1

Kochia (Kochia scoparia) [7] = assay: Test A postemergence; settings: Bassia scoparia, post-emergence, 240 h, Postemergence; for pest or weed control at 125 g/ha: 125 g ai/ha, visual rating about 10 d after treatment, read-out: Kochia plant response rating (0 to 100 scale); for pest or weed control at 500 g/ha: 500 g ai/ha, visual injury, 0 to 100 scale (0 no effect, 100 complete control), approx. 10 d, read-out: Plant response rating, Kochia
In short: as §1

[8] = system: barnyardgrass (Echinochloa crus-galli); assay: Test A postemergence; settings: Echinochloa crus-galli, post-emergence, 240 h, Postemergence; for pest or weed control at 125 g/ha: 125 g ai/ha, visual rating about 10 d after treatment, read-out: Barnyardgrass plant response rating (0 to 100 scale, 0 no effect, 100 complete control); for pest or weed control at 500 g/ha: 500 g ai/ha, visual injury, 0 to 100 scale (0 no effect, 100 complete control), approx. 10 d, read-out: Plant response rating, Barnyardgrass
In short: as §1

[9] = system: blackgrass (Alopecurus myosuroides); assay: Test A postemergence; settings: Alopecurus myosuroides, post-emergence, 240 h, Postemergence; for pest or weed control at 125 g/ha: 125 g ai/ha, visual rating about 10 d after treatment, read-out: Blackgrass plant response rating (0 to 100 scale); for pest or weed control at 500 g/ha: 500 g ai/ha, visual injury, 0 to 100 scale (0 no effect, 100 complete control), approx. 10 d, read-out: Plant response rating, Blackgrass
In short: as §1

[10] = system: giant foxtail (Setaria faberii); assay: Test A postemergence; settings: Setaria faberi, post-emergence, 240 h, Postemergence; for pest or weed control at 125 g/ha: 125 g ai/ha, visual rating about 10 d after treatment, read-out: Foxtail, Giant plant response rating (0 to 100 scale); for pest or weed control at 500 g/ha: 500 g ai/ha, visual injury, 0 to 100 scale (0 no effect, 100 complete control), approx. 10 d, read-out: Plant response rating, Foxtail, Giant
In short: as §1

[11] = system: ragweed (common ragweed, Ambrosia elatior); assay: Test A postemergence; settings: Ambrosia artemisiifolia, post-emergence, 240 h, Postemergence; for pest or weed control at 125 g/ha: 125 g ai/ha, visual rating about 10 d after treatment, read-out: Ragweed plant response rating (0 to 100 scale); for pest or weed control at 500 g/ha: 500 g ai/ha, visual injury, 0 to 100 scale (0 no effect, 100 complete control), approx. 10 d, read-out: Plant response rating, Ragweed
In short: as §1

[12] = system: barnyardgrass (Echinochloa crus-galli); assay: Test B flooded paddy test; settings: Echinochloa crus-galli, 250 g ai/ha, Flood
In short: (§2)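 Flooding to 3 cm over soil accompanied treatment, which consisted of adding compound to the standing water around 2-leaf plants; depth was then maintained. Visual assessment versus controls followed at 13 to 15 d (scale 0–100, 0 meaning no effect).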

[13] = system: ducksalad (Heteranthera limosa); assay: Test B flooded paddy test; settings: Heteranthera limosa, 250 g ai/ha, Flood
In short: as §2

rice (Oryra sativa) = assay: Test B flooded paddy test; settings: Oryza sativa, 250 g ai/ha, Flood
In short: as §2

[14] = system: sedge, umbrella (small-flower umbrella sedge, Cyperus difformis); assay: Test B flooded paddy test; settings: Cyperus difformis, 250 g ai/ha, Flood
In short: as §2

[15] = 0 to 100 scale where 0 is no effect and 100 is complete control, read-out: Kochia plant response rating
[16] = 0 to 100 scale (0 no effect, 100 complete control), read-out: Plant response rating, Kochia
[17] = 0 to 100 scale where 0 is no effect and 100 is complete control, read-out: Barnyardgrass plant response rating
[18] = 0 to 100 scale (0 no effect, 100 complete control), read-out: Plant response rating, Barnyardgrass
[19] = 0 to 100 scale where 0 is no effect and 100 is complete control, read-out: Foxtail, Giant plant response rating
[20] = 0 to 100 scale (0 no effect, 100 complete control), read-out: Plant response rating, Foxtail, Giant
[21] = 0 to 100 scale where 0 is no effect and 100 is complete control, read-out: Pigweed plant response rating
[22] = 0 to 100 scale (0 no effect, 100 complete control), read-out: Plant response rating, Pigweed
[23] = 0 to 100 scale where 0 is no effect and 100 is complete control, read-out: Ragweed plant response rating
[24] = 0 to 100 scale (0 no effect, 100 complete control), read-out: Plant response rating, Ragweed
[25] = 0 to 100 scale (0 no effect, 100 complete control), read-out: Plant response rating, Ryegrass, Italian
[26] = 0 to 100 scale where 0 is no effect and 100 is complete control, read-out: Ducksalad plant response rating
[27] = 0 to 100 scale where 0 is no effect and 100 is complete control, read-out: Rice plant response rating
[28] = 360 h, visually evaluated after 13 to 15 d, read-out: Plant response rating, Sedge, Umbrella (0 to 100 scale where 0 is no effect and 100 is complete control)
[29] = 360 h, visually evaluated after 13 to 15 d, read-out: Plant response rating, Barnyardgrass (0 to 100 scale where 0 is no effect and 100 is complete control)
[30] = 360 h, visually evaluated after 13 to 15 d, read-out: Plant response rating, Ducksalad (0 to 100 scale where 0 is no effect and 100 is complete control)
[31] = 360 h, visually evaluated after 13 to 15 d, read-out: Plant response rating, Rice (0 to 100 scale where 0 is no effect and 100 is complete control)

Compound	pest or weed control at 500 g/ha (Kochia (Kochia scoparia) [1]; [15]) [%]	pest or weed control at 125 g/ha (Kochia (Kochia scoparia) [1]; [16]) [%]	pest or weed control at 500 g/ha [2, 17] [%]	pest or weed control at 125 g/ha [2, 18] [%]	pest or weed control at 500 g/ha [3, 19] [%]	pest or weed control at 125 g/ha [3, 20] [%]	pest or weed control at 125 g/ha [4, 22] [%]	pest or weed control at 125 g/ha [5, 24] [%]	pest or weed control at 125 g/ha [6, 25] [%]	pest or weed control at 125 g/ha (Kochia (Kochia scoparia) [7]) [%]	pest or weed control at 500 g/ha (Kochia (Kochia scoparia) [7]) [%]	pest or weed control at 125 g/ha [8] [%]	pest or weed control at 500 g/ha [8] [%]	pest or weed control at 125 g/ha [9] [%]	pest or weed control at 500 g/ha [9] [%]	pest or weed control at 125 g/ha [10] [%]	pest or weed control at 500 g/ha [10] [%]	pest or weed control at 125 g/ha [11] [%]	pest or weed control at 500 g/ha [11] [%]	pest or weed control at 250 g/ha [14, 28] [%]	further results
Cc1cc(F)cc([C@H]2CNC(=O)[C@@H]2C(=O)Nc2cccc(F)c2F)c1 [Compound 1309]	60	60	90	90	90	80	0	40	0	0	50	90	90	0	60	30	70	0	30		pest or weed control at 500 g/ha [4, 21]: 20%; pest or weed control at 500 g/ha [5, 23]: 50%; pest or weed control at 500 g/ha ([6]; 0 to 100 scale where 0 is no effect and 100 is complete control, read-out: Ryegrass, Italian plant response rating): 20%; pest or weed control at 250 g/ha [12, 17]: 60%; pest or weed control at 250 g/ha [13, 26]: 100%; pest or weed control at 250 g/ha (rice (Oryra sativa); [27]): 20%; pest or weed control at 250 g/ha ([14]; 0 to 100 scale where 0 is no effect and 100 is complete control, read-out: Sedge, Umbrella plant response rating): 0%
CN1C[C@H](c2ccc3c(c2)CCO3)[C@@H](C(=O)Nc2ccccc2F)C1=O [Compound 1321]	80	50	100	90	100	90	0	50	0	0	50	90	90	30	50	90	90	0	20	0	pest or weed control at 500 g/ha [4, 21]: 0%; pest or weed control at 500 g/ha [5, 23]: 50%; pest or weed control at 250 g/ha [12, 17]: 90%; pest or weed control at 250 g/ha [13, 26]: 85%; pest or weed control at 250 g/ha (rice (Oryra sativa); [27]): 0%
O=C1NC[C@H](c2cncs2)[C@H]1C(=O)Nc1ccccc1F [Compound 1335]		0		0		0	0	0	0	0	0	0	0	0	0	0	0	0	0	0	pest or weed control at 500 g/ha (Kochia (Kochia scoparia) [1]; [16]): 0%; pest or weed control at 500 g/ha [2, 18]: 0%; pest or weed control at 500 g/ha [3, 20]: 0%; pest or weed control at 500 g/ha [4, 22]: 0%; pest or weed control at 500 g/ha [5, 24]: 0%; pest or weed control at 500 g/ha [6, 25]: 0%; pest or weed control at 250 g/ha [12, 29]: 0%; pest or weed control at 250 g/ha [13, 30]: 0%; pest or weed control at 250 g/ha (rice (Oryra sativa); [31]): 0%
O=C1NC[C@H](c2cncs2)[C@H]1C(=O)Nc1cccc(F)c1F [Compound 1336]		0		0		0	0	0	0	0	0	0	0	0	0	0	0	0	0	0	pest or weed control at 500 g/ha (Kochia (Kochia scoparia) [1]; [16]): 0%; pest or weed control at 500 g/ha [2, 18]: 0%; pest or weed control at 500 g/ha [3, 20]: 0%; pest or weed control at 500 g/ha [4, 22]: 0%; pest or weed control at 500 g/ha [5, 24]: 0%; pest or weed control at 500 g/ha [6, 25]: 0%; pest or weed control at 250 g/ha [12, 29]: 0%; pest or weed control at 250 g/ha [13, 30]: 40%; pest or weed control at 250 g/ha (rice (Oryra sativa); [31]): 0%
